From PMC8157947, “Peptidic boronic acids are potent cell-permeable inhibitors of the malaria parasite egress serine protease SUB1” (Proceedings of the National Academy of Sciences of the …, 2021) come the findings set out here.

The test system of one data set is P. falciparum schizonts. In words: Ring formation after pretreatment of schizonts and washout. The data set is classed as cell-based, Plasmodium falciparum. The following applies: pretreated schizonts washed, fresh RBCs, assessed at 24 h; 3j 10 μM, C2 1 μM. Here is the method:
Short-term egress, invasion, and washout assays were performed essentially as described previously ([27], [28], [42]). Briefly, highly synchronous mature Percoll-enriched schizonts with or without added fresh RBCs (∼5% parasitaemia final) were incubated with compounds under test or vehicle only (DMSO, 1% vol/vol). For washout assays, schizonts were treated with C2 or various concentrations of inhibitor 3j for 1 to 4 h, then washed extensively (at least four times) prior to addition to fresh RBCs where required. After incubation at 37 °C for just 1 to 4 h (or overnight for invasion assays) to allow schizont rupture, cells were pelleted. Clarified culture supernatants were assessed for extent of hemoglobin release (a measure of schizont rupture) by absorption spectroscopy at 415 nm as described previously ([28]) or analyzed by Western blot using antibodies against SERA5 ([7], [11]). To quantify generation of new rings, samples of the cultures were fixed with 4% paraformaldehyde/0.02% glutaraldehyde and stained with SYBR Green I (Life Technologies) and then analyzed by flow cytometry on a BD FACSVerse using BD FACSuite software. Data were analyzed using FlowJo software. All cultures were also routinely analyzed by microscopic examination of Giemsa-stained thin films to visually assess parasite morphology.

The subject of data set [1] is PfSUB1-mediated proteolytic processing of SERA5. As to the kind of experiment: Western blot of SERA5 processing after washout. Type of data set: cell-based, Plasmodium falciparum. The following applies: 4 h pretreatment then washout. The source says: To seek unambiguous confirmation that PfSUB1 is the intracellular target of compound 3j, we examined the effects of the compound on the PfSUB1-mediated proteolytic processing of the established endogenous PfSUB1 substrate SERA5, an abundant parasite PV protein that only becomes accessible to cleavage upon discharge of PfSUB1 into the PV in the minutes leading up to egress and is then released in a processed form into culture supernatants ([6], [11], [12]). […] It was concluded that compound 3j prevents egress and parasite proliferation through direct inhibition of intracellular PfSUB1.
Short-term egress, invasion, and washout assays were performed essentially as described previously ([27], [28], [42]). […] Clarified culture supernatants were assessed for extent of hemoglobin release (a measure of schizont rupture) by absorption spectroscopy at 415 nm as described previously ([28]) or analyzed by Western blot using antibodies against SERA5 ([7], [11]). To quantify generation of new rings, samples of the cultures were fixed with 4% paraformaldehyde/0.02% glutaraldehyde and stained with SYBR Green I (Life Technologies) and then analyzed by flow cytometry on a BD FACSVerse using BD FACSuite software. Data were analyzed using FlowJo software. All cultures were also routinely analyzed by microscopic examination of Giemsa-stained thin films to visually assess parasite morphology.
In general terms: Immunoblotting shows a protein as a band on a membrane.

In the next data set the target is rPfSUB1 (Plasmodium falciparum, UniProt Q8I0V0). As to the kind of experiment: Progress curve kinetic analysis of rPfSUB1 inhibition. The source says:
Boronic acids form reversible covalent bonds with serine and threonine proteases ([26]). Inhibition is generally time dependent, and the covalent nature of the binding can result in relatively long target occupancy times despite the reversibility of the bond. […] To analyze the kinetic characteristics of the interaction between 3j and rPfSUB1, we used progress curve analysis to continuously monitor rPfSUB1-mediated cleavage of a fluorogenic substrate in the presence of a range of concentrations of 3j. […] Under such conditions, fit of the progress curves by nonlinear regression to Eq. 1 (see Materials and Methods) allows determination of kobs, the pseudo first-order rate constant for onset of inhibition. The kobs is effectively a composite of the on and off rates, so least linear squares regression of the calculated kobs values against inhibitor concentration allows determination of values of the pseudo first-order dissociation rate constant koff and the second-order association rate constant kon for the inhibitor-rPfSUB1 interaction, based respectively on values from the y-intercept and slope.
Progress curves of SERA4st1F-6R12 cleavage by rPfSUB1 were acquired at seven concentrations of inhibitor compound 3j over a period of 35 min, during which fluorescence increases in the absence of inhibitor were linear. The obtained progress curves (four independent replicates) were fit using GraphPad Prism 8.0 software to the following time-dependent inhibition equation: [P] = Vs∗t + ((Vi−Vs)/kobs)∗(1−exp(−kobs∗t)).
In the equation, Vi is the initial velocity, Vs is the final steady-state velocity, and kobs reflects the observed pseudo first-order rate of inactivation. The obtained kobs values were plotted against compound concentration using a linear least squares fit. All statistical analysis was carried out using GraphPad Prism 8.

The structures appear in SMILES notation. “And” between values parts separate entries of the source, which are not always exact repeats. Equal entries are not always repeated.

Chain of rPfSUB1 (Q8I0V0 218-688): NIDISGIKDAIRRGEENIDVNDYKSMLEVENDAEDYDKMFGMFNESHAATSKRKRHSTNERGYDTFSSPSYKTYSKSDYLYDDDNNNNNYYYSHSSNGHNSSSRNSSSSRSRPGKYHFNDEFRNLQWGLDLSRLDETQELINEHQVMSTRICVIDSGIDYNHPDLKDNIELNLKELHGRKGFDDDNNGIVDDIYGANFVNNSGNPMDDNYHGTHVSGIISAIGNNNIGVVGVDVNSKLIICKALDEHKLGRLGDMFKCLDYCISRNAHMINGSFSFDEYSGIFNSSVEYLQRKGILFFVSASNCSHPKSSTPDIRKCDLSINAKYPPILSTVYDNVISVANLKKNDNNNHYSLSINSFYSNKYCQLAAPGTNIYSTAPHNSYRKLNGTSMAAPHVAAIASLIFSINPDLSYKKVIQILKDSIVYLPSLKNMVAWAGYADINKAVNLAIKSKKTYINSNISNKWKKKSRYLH

In the case of `CC(=O)NC(C(=O)NC(C(=O)NCC(=O)NC(C)B(O)O)C(C)C)C1CCCC1` (stereo not drawn) [3j], the “ring production after washout” value in the data set on P. falciparum schizonts is reported as “No rings were produced”. Further, the SERA5 proteolytic processing entry in data set [1] was “prevented proteolytic processing and release of SERA5”. The compound further gave an inhibition constant Ki at rPfSUB1 of 1 nM. Further, on rPfSUB1 (from koff), the “t1/2^off (bound half-life)” value was ~31 min and ~30 min. For the same compound, the koff on rPfSUB1 (read-out: koff, dissociation rate constant) was 0.00037 s⁻¹. The kon on rPfSUB1 (read-out: kon, second-order association rate constant) was 360000 M⁻¹ s⁻¹.

As usually defined, the Ki is a dissociation constant, usually derived from enzyme kinetics or from competition with a known ligand. One may read the koff as a measure of how fast the partners let go of each other. The term kon denotes the second-order rate constant of association.
